The record followed here is ChEMBL document CHEMBL5303711, “ECBD screening data for assay EOS300108” (2023).

Active and inactive are the calls of the source. The rule behind the calls is not given here.

The series can be described thus: Cytotoxicity activity against human HepG2 cells assessed by CellTiter-Glo luminescent cell viability assay. It counts as toxicity, cell-based. The arrangement: assay stage confirmatory assay, source tissue liver. The settings on record: HepG2 cells, read-out: IC50 relative.

With `CCC(=O)Nc1ccc(C(=O)Cn2ncc(Cl)c(Cl)c2=O)cc1`, the CC50 was 3.3 µM (active). On to `COc1ccccc1N1CCN(S(=O)(=O)c2ccc3c4c(cccc24)C(=O)N3)CC1`, for which the CC50 was 10.8 µM (inactive).

As to `CN(C)S(=O)(=O)c1cccc(NC(=O)CSc2cccc3cccnc23)c1`, the CC50 is 3.5 µM (active).

In the case of `CC(C)(C)c1n[nH]c2c(-c3nc4ccccc4s3)c(N)nn2c1=O`, the CC50 was 35.4 µM (inactive). Take `Cc1cn(CC(=O)c2ccc(NC(=O)CC(C)C)cc2)cc(Br)c1=O`: the CC50 is 22.2 µM (inactive). As to `Cc1ccc(Cc2cnc(NC(=O)NC[C@H](C)CN3CCN(C)CC3)s2)cc1`, the CC50 is 7.6 µM (active). As for `O=C(Nc1ccccn1)c1cccc(NS(=O)(=O)c2c[nH]c3ncccc23)c1`, the CC50 is 8.6 µM (active). On to `Cc1cc(C)c(C(N)=O)c(SCC(=O)N(CCC#N)c2ccc3c(c2)OCCO3)n1`, for which the CC50 was 4.3 µM (active). On to `COc1ccc(OC)c(C2CC(c3c(O)[nH]c(=O)n(C4CCCCC4)c3=O)=NN2)c1` (stereo unspecified), for which the CC50 is 5.7 µM (active). For the compound `N[C@@H](CNC(=O)COc1ccc(Cl)c2ccccc12)C1CC1`, the CC50 is 24.9 µM (inactive). For `O=S1(=O)CCCN1c1ccc(CNc2ncnc3ccccc23)cc1F`, the CC50 was 2.2 µM (active).

On to `Cc1cc(NC(=O)c2cscn2)ccc1NC(=O)c1ccco1`, for which the CC50 was 9.1 µM (active). In the case of `C[C@H](O)CN1CCC(CNCc2ccc(Br)cc2)CC1`, the CC50 was 5.3 µM (active). Consider `CCCCn1nnnc1Cn1ncc(Cl)c(Cl)c1=O`, for which the CC50 is 3 µM (active). Turning to `COc1ccc(-c2nnc(Cn3ncc(Cl)c(Cl)c3=O)o2)cc1`, the CC50 was 0.9 µM (active). Turning to `COCCN1CCCC(CNC2CCN(c3ccccc3Cl)CC2)C1` (stereo unspecified), the CC50 is 5.2 µM (active). As to `O=C(Cc1ccc(-n2cccn2)cc1)Nc1nccs1`, the CC50 was 0.6 µM (active).

In the case of `COc1ccccc1OCC(=O)Nc1cccc2ncccc12`, the CC50 was 9.3 µM (active). For the compound `COc1cc(F)cc2sc(NC(=O)c3cc(N4CCOCC4)ccn3)nc12`, the CC50 is 48.8 µM (inactive).

With `CCN(c1ccc(C(=O)Nc2ccccc2O)cc1)C(C)C`, the CC50 was 11.9 µM (active). In the case of `COc1c(C)ncnc1NCc1cccc(C(F)(F)F)c1`, the CC50 is 2.9 µM (active).

With `Cc1ccc(NC(=O)Nc2ccc(Cl)cc2)cc1NS(C)(=O)=O`, the CC50 is 3.6 µM (active).

In the case of `Nc1ccnc2ccc(Oc3ccccc3)cc12`, the CC50 is 11.2 µM (active).

`O=C(Nc1nccs1)c1cccc(S(=O)(=O)N2CCN(c3ccc(F)cc3)CC2)c1`: the CC50 is 3.1 µM (active). With `CCCn1c(NC(=O)c2cccc(S(=O)(=O)N3CCN(C(C)=O)CC3)c2)nc2ccccc21` the figure was 8.3 µM (active); with `Fc1ccc2[nH]c(CCNc3ncc(Br)cn3)nc2c1`, 5.1 µM (active); with `O=C1c2ccccc2C(=O)N1Cn1ncc(Cl)c(Cl)c1=O`, 11.5 µM (active). Take `CCCCNc1nc(-c2cc(C)ccn2)cs1`: the CC50 is 6.3 µM (active). In the case of `CN(C)c1cccc(S(=O)(=O)Nc2ccc3ncccc3c2)c1`, the CC50 is 3.3 µM (active). In the case of `Nc1ccncc1CCC1CCCCC1`, the CC50 was 10.7 µM (active).

Turning to `O=S(=O)(c1cccs1)N1CCN(C[C@H](O)COc2cc(Cl)ccc2Cl)CC1`, the CC50 is 8.9 µM (active). Turning to `COc1ccc2[nH]c(NC(=O)[C@@H]3CCCC(=O)N3)cc2c1`, the CC50 is 4.6 µM (active). With `Cn1c(=O)c2c(ncn2CCn2ncc(Cl)c(Cl)c2=O)n(C)c1=O` the figure was 11.7 µM (active). Consider `Cc1nccn1-c1ccc(NC(=O)c2cccc(OC(C)C)n2)cn1`, for which the CC50 was 6.5 µM (active). For `Cc1csc2nc(CN[C@H](c3ccc(Cl)cc3)C3CC3)cc(=O)n12` the value was 2.6 µM (active); for `Cc1ccc(NC(=O)Cc2ccc(-n3cccn3)cc2)nc1`, 0.4 µM (active); for `Cc1cc(C)n(C(=O)Cc2cccs2)n1`, 16 µM (inactive).

As to `Cc1cccn2c(CC(=O)N3CCOc4ccc(Cl)cc4C3)cnc12`, the CC50 is 4.9 µM (active).

`c1ccc(-n2cnc3c(Nc4cnn(C[C@H]5CCCO5)c4)ncnc32)cc1`: the CC50 was 5.8 µM (active). `CCOc1cc2ccccc2cc1C(=O)NCc1ccco1`: the CC50 was 1.7 µM (active). As to `COc1ccc2cc(C(=O)Nc3ccc4oc(=O)[nH]c4c3)[nH]c2c1`, the CC50 was 32.5 µM (inactive).

For `C[C@@H]1NC(C(=O)Nc2ccnc3ccnn23)=NN(c2ccccc2)C1=O`, the CC50 was 13.2 µM (active). `CCCN1CCC(NC(=O)c2nn(-c3cccc(Cl)c3)nc2C)CC1`: the CC50 was 16.3 µM (inactive). In the case of `CNC(=O)c1cc(Oc2ccccc2N)ccn1`, the CC50 was 32.7 µM (inactive). On to `O=S(=O)(c1ccc(N2CCN(c3ncnc4c3oc3ccccc34)CC2)nc1)N1CCOCC1`, for which the CC50 is 3.3 µM (active). As to `Cc1nn(-c2cccc(Cl)c2)nc1C(=O)N(C)C1CCNCC1`, the CC50 was 11.4 µM (active).

Turning to `CCn1nc(C)cc1C(=O)Nc1nc2cc(C#N)ccc2n1CC`, the CC50 was 4 µM (active).

As to `CC(C)(C)NS(=O)(=O)c1ccc(C(=O)Nc2ccc(Oc3cccnc3)nc2)o1`, the CC50 is 11.8 µM (inactive).

Consider `O=S(=O)(Nc1ccc(Cl)c2cccnc12)c1c[nH]c2ncccc12`, for which the CC50 was 5.5 µM (inactive). Turning to `Oc1ccc(CN2CCc3ccccc3C2)cc1`, the CC50 is 3.4 µM (active). For the compound `Cc1ccc(NC(=O)c2cccc(F)c2Cl)cc1O`, the CC50 is 0.7 µM (active). For `O=C(NCC(F)(F)CO)c1ccc2noc(-c3ccccc3)c2c1`, the CC50 is 7.2 µM (active). Regarding `CC1=NNc2nc3c(c(=O)n(Cc4ccccc4Cl)c(=O)n3C)n2[C@H]1C`, the CC50 is 21.1 µM (inactive). For `CCc1nc(C)c([C@H](C)N(C)Cc2cccnc2N)s1`, the CC50 was 13.8 µM (active). On to `CC(C)(C)n1ncc(N2CCN(c3ccc(C#N)cc3F)CC2)c(Cl)c1=O`, for which the CC50 was 22.7 µM (active).

Regarding `Clc1ccc(C2=CCNCC2)cc1Cl`, the CC50 is 10.8 µM (active). In the case of `COc1cc(-c2nc(-c3cccs3)no2)cc(OC)c1O`, the CC50 was 0.4 µM (active). As to `O=C(Nc1ccnn1-c1ccc(Br)cn1)c1ccccn1`, the CC50 was 23.7 µM (inactive). For `C[C@H]1CN(CC(=O)Nc2nc3ccc(F)cc3s2)CCN1c1nccn2cnnc12`, the CC50 is 8 µM (active). Regarding `CC(C)CN(CCS(=O)(=O)c1ccc(C(C)(C)C)cc1)C1CCN(C)CC1`, the CC50 is 4.4 µM (active). As to `Cc1nonc1Cn1nc(Cl)c(Cl)cc1=O`, the CC50 is 21.6 µM (inactive). `c1ccc2c(c1)OC[C@H](CNc1ncnc3sccc13)O2`: the CC50 was 1.8 µM (active).

In the case of `Cc1c(CNCCCN2CCCCC2CO)oc2ccccc12` (stereo unspecified), the CC50 is 9.8 µM (active).

`CCN(CC)C(=O)CN1CCN(S(=O)(=O)c2ccc3c(c2)CCC3)CC1`: the CC50 was 50 µM (inactive). `COc1ccsc1C(=O)Nc1ncc(Cl)s1`: the CC50 was 2.3 µM (active). With `Cc1cc(-c2csc(NC(=O)c3coc(S(=O)(=O)N(C)C)c3)n2)c(C)o1` the figure was 16.5 µM (inactive).
